This experiment is described as follows: Ability to induce shape change (polarization) in human polymorphonuclear leukocytes (PMN).
Turning to `CSCC[C@H](NC(=O)[C@H](CC(=O)O)NC(=O)[C@H](CCCCN)NC(=O)[C@H](Cc1ccccc1)NC(=O)[C@H](CO)NC(=O)[C@@H](N)Cc1ccc(O)cc1)C(=O)N1CCC[C@H]1C(=O)N[C@@H](CC(C)C)C(=O)NCC(=O)N[C@@H](CCCNC(=N)N)C(=O)O`, a half-maximal response (EC50) required 5 µM.

In turn, `CC(C)C[C@H](NC(=O)[C@@H]1CCCN1C(=O)[C@H](C)NC(=O)[C@H](CC(=O)O)NC(=O)[C@H](CCCCN)NC(=O)[C@H](Cc1ccccc1)NC(=O)[C@H](CO)NC(=O)[C@@H](N)Cc1ccc(O)cc1)C(=O)NCC(=O)N[C@@H](CCCNC(=N)N)C(=O)O` registered an EC50 of 15.8 µM.

As to “H-YSFKDMQLGR-OH [Tyr-Ser-Phe-LyS-Asp-Met-Glu-Leu-Gly-Arg]”, the EC50 was 37 µM.

H-YSFKDMQPGR-OH displayed an EC50 of 22 µM.

Consider H-YSFKGLLLGR-OH, for which the EC50 was determined as 0.3 µM.

(Values after BindingDB's records for doi:10.1021/jm00018a028 (University of Nebraska Medical Center, 1995).)
